From ChEMBL document CHEMBL1126805, “Synthesis and evaluation of a series of benzylaniline hydrochlorides as potential cytotoxic and antimitotic agents acting by inhibition of tubulin polymerization” (J Med Chem, 1993)

Tests used:
[1] = test system: COLO 205; experiment: Tested for cytotoxicity against COLO 205 (colon cancer) cell line.; assay type: functional, Homo sapiens
[2] = target: Tubulin (Bos taurus, UniProt Q6B856+Q862F3); experiment: In vitro inhibition of bovine electrophoretically homogeneous tubulin polymerization.; assay type: functional
Tubulin, sequence (Q6B856 whole entry): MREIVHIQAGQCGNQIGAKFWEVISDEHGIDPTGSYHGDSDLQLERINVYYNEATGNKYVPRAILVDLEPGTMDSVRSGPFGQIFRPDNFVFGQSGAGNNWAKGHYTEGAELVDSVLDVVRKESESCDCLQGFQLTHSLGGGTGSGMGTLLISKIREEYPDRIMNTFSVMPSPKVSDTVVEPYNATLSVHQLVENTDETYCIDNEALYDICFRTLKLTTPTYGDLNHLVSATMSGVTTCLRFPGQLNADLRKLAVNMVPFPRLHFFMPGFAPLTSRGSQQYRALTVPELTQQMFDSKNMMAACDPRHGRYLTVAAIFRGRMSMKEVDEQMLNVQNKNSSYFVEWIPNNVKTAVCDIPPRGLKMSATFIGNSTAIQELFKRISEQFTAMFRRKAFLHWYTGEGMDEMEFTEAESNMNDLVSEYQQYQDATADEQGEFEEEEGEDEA
Tubulin, sequence (Q862F3 whole entry): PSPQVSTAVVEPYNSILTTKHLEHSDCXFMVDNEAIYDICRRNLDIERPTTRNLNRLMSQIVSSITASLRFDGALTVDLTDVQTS

[3] = test system: OVCAR-3; experiment: Tested for cytotoxicity against OVCAR-3 (ovarian cancer) cell line.; assay type: functional, Homo sapiens
[4] = test system: NCI-H522; experiment: Tested for cytotoxicity against NCI-H522 (non-small-cell lung cancer) cell line.; assay type: functional, Homo sapiens
[5] = test system: CAKI-1; experiment: Tested for cytotoxicity against CAKI-1 renal cancer; assay type: functional, Homo sapiens
[6] = test system: SF-295; experiment: In vitro cytotoxicity against SF-295 (CNS cancer) cell line.; assay type: functional, Homo sapiens
[7] = test system: DMS-273; experiment: Tested for cytotoxicity against DMS 273 (small-cell lung cancer) cell line.; assay type: functional, Homo sapiens
[8] = test system: M14; experiment: Tested for cytotoxicity against M14 melanoma; assay type: functional, Homo sapiens
[9] = test system: HL-60; experiment: Tested for cytotoxicity against human cancer cell lines HL-60(TB) (leukemia) cell line.; assay type: functional

| Compound | GI50 ([1]; Homo sapiens, COLO 205) | IC50 [2] | GI50 ([3]; Homo sapiens, OVCAR-3) | GI50 ([4]; Homo sapiens, NCI-H522) | GI50 ([5]; Homo sapiens, CAKI-1) | GI50 ([6]; Homo sapiens, SF-295) | GI50 [7] | GI50 ([8]; Homo sapiens, M14) | GI50 ([9]; Homo sapiens, HL-60) | GI50 [1] | GI50 [3] | GI50 [4] | GI50 [6] | GI50 [8] | GI50 [9] | GI50 ([7]; Homo sapiens, DMS-273) | GI50 [5] |
| --- | --- | --- | --- | --- | --- | --- | --- | --- | --- | --- | --- | --- | --- | --- | --- | --- | --- |
| CCc1ccc(NCc2cc(OC)c(OC)c(OC)c2)cc1 [listing 1 of 2 here] | 0.344 µM | 3 µM | 0.283 µM | 0.234 µM | 0.354 µM | 0.266 µM | 0.135 µM | 0.315 µM | 0.168 µM | – | – | – | – | – | – | – | – |
| CCc1ccc(NCc2cc(OC)c(OC)c(OC)c2)cc1 [listing 2 of 2 here] | – | 7.2 µM | – | – | – | – | 0.818 µM | – | – | 0.352 µM | 0.405 µM | 0.371 µM | 0.339 µM | 0.437 µM | 0.245 µM | – | – |
| COc1cc(CNc2ccc(SC)cc2)cc(OC)c1OC [listing 1 of 2 here] | 3.88 µM | > 40 µM | 5.93 µM | 4.68 µM | 32 µM | – | – | 5.26 µM | 3.7 µM | – | – | – | 7.28 µM | – | – | 3.09 µM | – |
| COc1cc(/C=N/c2ccc(C(C)C)cc2)cc(OC)c1OC | > 100 µM | > 40 µM | > 100 µM | > 100 µM | > 100 µM | > 100 µM | – | > 100 µM | > 100 µM | – | – | – | – | – | – | 52.5 µM | – |
| COc1ccc(/C=C\c2cc(OC)c(OC)c(OC)c2)cc1 | – | 2 µM | – | – | – | – | – | – | – | – | – | – | – | – | – | – | – |
| COc1cc(CNc2ccc(SC)cc2)cc(OC)c1OC [listing 2 of 2 here] | – | 16 µM | – | – | – | – | 4.91 µM | – | – | 3.6 µM | 4.85 µM | 2.95 µM | 3.41 µM | 4.84 µM | 3.29 µM | – | 16.3 µM |
| CCOc1ccc(/N=C/c2cc(OC)c(OC)c(OC)c2)cc1 | – | > 40 µM | > 100 µM | > 100 µM | > 100 µM | > 100 µM | – | > 100 µM | > 100 µM | – | – | – | – | – | – | > 100 µM | – |
| CCCc1ccc(NCc2cc(OC)c(OC)c(OC)c2)cc1 | – | > 40 µM | – | – | – | – | – | – | – | – | – | – | – | – | – | 16.2 µM | – |
| CCOc1ccc(NCc2cc(OC)c(OC)c(OC)c2)cc1 | – | 11 µM | – | – | – | – | 0.961 µM | – | – | 0.538 µM | 0.464 µM | 0.574 µM | 0.418 µM | 0.532 µM | 0.448 µM | – | 1.05 µM |
